In brackets after ≈: the same amount, converted by molar mass. Read-outs that look alike come from different tables or passages of the source.

For assay [1], the system named is viable cells of fecal suspension.
Assay [2] deals with M. morganii and P. pennerii isolates. In words: microbe, parasite or virus in culture. It counts as cell-based.
In assay [3] the test system is ethanol treated spores. In words: Germination of ethanol treated spores with germinants, CFU on plate media. As to conditions: 2 ug/ml; plated on Sweet B or M2GSC media, single donor, FIG. 9.

Consider `CCO` [Ethanol, ethanol], for which, in assay [1], the “reduction of the number of viable cells” value is reported as “approximately 4 logs”.

On to `C[C@@H](O)[C@H]1C(=O)N2C(C(=O)O)=C(SCCN=CN)C[C@H]12` [imipenem], for which the figures for the MIC in assay [2] and in assay [2] (Morganella morganii) were 4 to 8 µg/mL and 2 to 4 µg/mL (≈ 6.68 to 13.4 µM), respectively.

As for lysozyme, in assay [3], the “effect of addition to the plates on CFU, in words” value is “small effect”.
